Measurements from the CheMixHub viscosity set.

Test: xn = mol fraction of the nth substance listed

c1ccc2ncccc2c1 + OCC(F)(F)F
viscosity [mPa·s], 101.33 kPa
Settings | 298.15 K | 303.15 K | 308.15 K | 313.15 K | 318.15 K | 323.15 K
x1 = 0.16 | 2.34 | 2.05 | 1.84 | 1.62 | 1.46 | 1.32
x1 = 0.34 | 2.91 | 2.57 | 2.27 | 2.04 | 1.83 | 1.65
x1 = 0.54 | 3.14 | 2.79 | 2.46 | 2.21 | 2 | 1.82
x1 = 0.76 | 3.17 | 2.8 | 2.49 | 2.25 | 2.05 | 1.87

COC(C)=O + CC(C)O
298.15 K
Settings | viscosity [mPa·s]
101 kPa, x2 = 0.0988 | 0.385
101 kPa, x2 = 0.2003 | 0.416
101 kPa, x2 = 0.3227 | 0.453
101 kPa, x2 = 0.3967 | 0.484
101 kPa, x2 = 0.4976 | 0.53
101 kPa, x2 = 0.666 | 0.668
101 kPa, x2 = 0.7895 | 0.933
101 kPa, x2 = 0.7978 | 0.96
101 kPa, x2 = 0.9011 | 1.37
101.33 kPa, x1 = 0.0598 | 1.642
101.33 kPa, x1 = 0.1684 | 1.101
101.33 kPa, x1 = 0.2671 | 0.83
101.33 kPa, x1 = 0.3634 | 0.671
101.33 kPa, x1 = 0.4646 | 0.571
101.33 kPa, x1 = 0.5621 | 0.504
101.33 kPa, x1 = 0.6773 | 0.448
101.33 kPa, x1 = 0.7619 | 0.417
101.33 kPa, x1 = 0.866 | 0.394

COc1ccccc1N + CCCC(=O)O
viscosity [mPa·s], 100 kPa
Settings | x1 = 0.1187 | x1 = 0.1967 | x1 = 0.2806 | x1 = 0.3708 | x1 = 0.5026 | x1 = 0.6111 | x1 = 0.6888 | x1 = 0.7711 | x1 = 0.9041
303.15 K | 1.813 | 2.094 | 2.394 | 2.716 | 3.184 | 3.567 | 3.839 | 4.126 | 4.589
308.15 K | 1.646 | 1.911 | 2.194 | 2.497 | 2.937 | 3.298 | 3.554 | 3.824 | 4.259
313.15 K | 1.478 | 1.726 | 1.992 | 2.276 | 2.689 | 3.027 | 3.266 | 3.519 | 3.926
318.15 K | 1.313 | 1.547 | 1.796 | 2.063 | 2.451 | 2.768 | 2.992 | 3.229 | 3.611

COCCOC + O=Cc1ccccc1
298.15 K, 101 kPa
Settings | viscosity [mPa·s]
x1 = 0.1157 | 1.225
x1 = 0.2274 | 1.082
x1 = 0.3354 | 0.954
x1 = 0.4398 | 0.841
x1 = 0.5408 | 0.741
x1 = 0.6385 | 0.655
x1 = 0.7332 | 0.58
x1 = 0.8249 | 0.515
x1 = 0.9138 | 0.458

O=C(O)c1ccccc1 + O=[N+]([O-])c1ccccc1
viscosity [mPa·s], 101 kPa
Settings | x1 = 0.09745 | x1 = 0.108 | x1 = 0.139 | x1 = 0.1489 | x1 = 0.175
308.15 K | 1.746 | – | – | – | –
313.15 K | 1.626 | 1.626 | 1.675 | 1.746 | 1.746
318.15 K | 1.503 | – | – | 1.611 | –
323.15 K | 1.397 | – | – | 1.492 | –

C1CCCCC1 + CCO
Settings | viscosity [mPa·s]
293.15 K, 101.3 kPa, x1 = 0.0565 | 1.143
293.15 K, 101.3 kPa, x1 = 0.2674 | 1.028
293.15 K, 101.3 kPa, x1 = 0.3539 | 0.9953
293.15 K, 101.3 kPa, x1 = 0.4506 | 0.9698
293.15 K, 101.3 kPa, x1 = 0.5626 | 0.9436
293.15 K, 101.3 kPa, x1 = 0.6898 | 0.9184
293.15 K, 101.3 kPa, x1 = 0.8348 | 0.9099
298.15 K, 101 kPa, x2 = 0.0396 | 0.871
298.15 K, 101 kPa, x2 = 0.0718 | 0.867
298.15 K, 101 kPa, x2 = 0.1435 | 0.851
298.15 K, 101 kPa, x2 = 0.3225 | 0.839
298.15 K, 101 kPa, x2 = 0.4832 | 0.864
298.15 K, 101 kPa, x2 = 0.6269 | 0.901
298.15 K, 101 kPa, x2 = 0.7067 | 0.923
298.15 K, 101 kPa, x2 = 0.8205 | 0.967
298.15 K, 101.3 kPa, x1 = 0.0565 | 1.037
298.15 K, 101.3 kPa, x1 = 0.1188 | 0.9995
298.15 K, 101.3 kPa, x1 = 0.1894 | 0.9602
298.15 K, 101.3 kPa, x1 = 0.2674 | 0.9303
298.15 K, 101.3 kPa, x1 = 0.3539 | 0.9067
298.15 K, 101.3 kPa, x1 = 0.4506 | 0.8821
298.15 K, 101.3 kPa, x1 = 0.5626 | 0.8589
298.15 K, 101.3 kPa, x1 = 0.6898 | 0.8388
298.15 K, 101.3 kPa, x1 = 0.8348 | 0.8319
298.15 K, 101.33 kPa, x1 = 0.0999 | 1.003
298.15 K, 101.33 kPa, x1 = 0.1993 | 0.951
298.15 K, 101.33 kPa, x1 = 0.2995 | 0.923
298.15 K, 101.33 kPa, x1 = 0.3987 | 0.892
298.15 K, 101.33 kPa, x1 = 0.5003 | 0.872
298.15 K, 101.33 kPa, x1 = 0.55 | 0.861
298.15 K, 101.33 kPa, x1 = 0.6011 | 0.851
298.15 K, 101.33 kPa, x1 = 0.7014 | 0.831
298.15 K, 101.33 kPa, x1 = 0.803 | 0.826
298.15 K, 101.33 kPa, x1 = 0.9006 | 0.84
303.15 K, 101.3 kPa, x1 = 0.0565 | 0.947
303.15 K, 101.3 kPa, x1 = 0.1188 | 0.9133
303.15 K, 101.3 kPa, x1 = 0.1894 | 0.8784
303.15 K, 101.3 kPa, x1 = 0.2674 | 0.8522
303.15 K, 101.3 kPa, x1 = 0.3539 | 0.8288
303.15 K, 101.3 kPa, x1 = 0.4506 | 0.8084
303.15 K, 101.3 kPa, x1 = 0.5626 | 0.786
303.15 K, 101.3 kPa, x1 = 0.6898 | 0.7655
303.15 K, 101.3 kPa, x1 = 0.8348 | 0.7647
303.15 K, 101.33 kPa, x2 = 0.0952 | 0.7883
303.15 K, 101.33 kPa, x2 = 0.1976 | 0.7705
303.15 K, 101.33 kPa, x2 = 0.2988 | 0.7735
303.15 K, 101.33 kPa, x2 = 0.3894 | 0.7762
303.15 K, 101.33 kPa, x2 = 0.4879 | 0.7852
303.15 K, 101.33 kPa, x2 = 0.5929 | 0.8063
303.15 K, 101.33 kPa, x2 = 0.7828 | 0.8609
303.15 K, 101.33 kPa, x2 = 0.9018 | 0.921
308.15 K, 101 kPa, x2 = 0.0396 | 0.741
308.15 K, 101 kPa, x2 = 0.0718 | 0.729
308.15 K, 101 kPa, x2 = 0.1435 | 0.716
308.15 K, 101 kPa, x2 = 0.3225 | 0.707
308.15 K, 101 kPa, x2 = 0.4832 | 0.726
308.15 K, 101 kPa, x2 = 0.6269 | 0.752
308.15 K, 101 kPa, x2 = 0.7067 | 0.772
308.15 K, 101 kPa, x2 = 0.8205 | 0.807
308.15 K, 101 kPa, x2 = 0.8789 | 0.835
308.15 K, 101 kPa, x2 = 0.9548 | 0.875
308.15 K, 101.3 kPa, x1 = 0.0565 | 0.8683
308.15 K, 101.3 kPa, x1 = 0.1188 | 0.8383
308.15 K, 101.3 kPa, x1 = 0.1894 | 0.8039
308.15 K, 101.3 kPa, x1 = 0.2674 | 0.7793
308.15 K, 101.3 kPa, x1 = 0.3539 | 0.7578
308.15 K, 101.3 kPa, x1 = 0.4506 | 0.7384
308.15 K, 101.3 kPa, x1 = 0.5626 | 0.7191
308.15 K, 101.3 kPa, x1 = 0.6898 | 0.7052
308.15 K, 101.3 kPa, x1 = 0.8348 | 0.7051
318.15 K, 101 kPa, x2 = 0.0396 | 0.632
318.15 K, 101 kPa, x2 = 0.0718 | 0.627
318.15 K, 101 kPa, x2 = 0.1435 | 0.614
318.15 K, 101 kPa, x2 = 0.3225 | 0.601
318.15 K, 101 kPa, x2 = 0.4832 | 0.616
318.15 K, 101 kPa, x2 = 0.6269 | 0.634
318.15 K, 101 kPa, x2 = 0.7067 | 0.649
318.15 K, 101 kPa, x2 = 0.8205 | 0.68
318.15 K, 101 kPa, x2 = 0.8789 | 0.701
318.15 K, 101 kPa, x2 = 0.9548 | 0.736

O.O.O=C(O)c1cc(S(=O)(=O)O)ccc1O + O
viscosity [mPa·s], 101 kPa
Settings | x1 = 0.0004118 | x1 = 0.0005979 | x1 = 0.0007679 | x1 = 0.001076
298.15 K | 0.8998 | 0.9032 | 0.907 | 0.9134
308.15 K | 0.7268 | 0.7304 | 0.7332 | 0.7386
318.15 K | 0.597 | 0.6063 | 0.6087 | 0.6128
